The source of these data is patent US20080176828A1, “Treating melanoma with BIS(THIOHYDRAZIDE AMIDES)” (priority 2006, published 2008).

SMILES strings stand for the structures. Values joined by “and” are separate entries in the source; they are usually repeats but may differ in a detail not shown here. Equal values may be shown once. Read-outs that look alike come from different tables or passages of the source.

One assay has as its system melanoma. Particulars: currently used melanoma treatments, cited from earlier work.
Assay [1] concerns Stage IV metastatic melanoma.
Procedure: Example 1, weekly treatment regimen of compound (1) and paclitaxel combined in Stage IV metastatic melanoma patients in comparison with paclitaxel alone, based on time to progression
The dosages administered were 213 mg/m^2 compound (1), 80 mg/m^2 paclitaxel, and the dosage regimen was 3 weekly doses per each 4 week cycle. Patients were treated until progression of the disease. […] The tumor assessments were performed at baseline, Cycle 2, and every other Cycle thereafter.
Setting [2] is: Kaplan-Meier estimate, efficacy sample, Stage IV melanoma patients, 3 weekly doses per 4 week cycle.
Where [3] appears, read: RECIST, efficacy sample, number of patients (% of group).
[4] abbreviates: own trial arms as listed in Tables 3 and 4.

As to `CNC(=O)c1cc(Oc2ccc(NC(=O)Nc3ccc(Cl)c(C(F)(F)F)c3)cc2)ccn1` [Sorafenib], the PR in the assay on melanoma is 2.6%.

Regarding `CC(=O)O[C@H]1C(=O)[C@@]2(C)[C@H]([C@H](OC(=O)c3ccccc3)[C@]3(O)C[C@H](OC(=O)[C@H](O)[C@@H](NC(=O)c4ccccc4)c4ccccc4)C(C)=C1C3(C)C)[C@]1(OC(C)=O)CO[C@@H]1C[C@@H]2O` [Paclitaxel], in the assay with melanoma (listed as Paclitaxel (Taxol)), the OR was 12% and 17.8%. In assay [1] (setting [2]), the “Time to Progression, 75th percentile (95% CI)” value is reported as 106.0 (61.0, 218.0) days and the “Time to Progression, Median (95% CI)” value is reported as 56.0 (49.0, 105.0) days. For the same compound, in assay [1] (setting [3]), the “Best Overall Response: Complete Response (CR)” value is 0, the “Best Overall Response: Partial Response (PR)” value was 1 (3.7%) and the “Best Overall Response: Progressive Disease (PD)” value is listed as 16 (59.3%). Further, the “CR + PR (95% CI)” value in assay [1] (RECIST, efficacy sample, two-sided Fisher's exact test p-value 0.149) is 3.7% (0.1%, 19.0%). Further, the “patients with stable disease” value in assay [1] (Table 2) is listed as 37%. In assay [1] (setting [4]), this compound displayed a CR of 0%, an OR of 3.7%, a PR of 3.7% and a TTP of 57 days.

Turning to `CC/C(=C(\c1ccccc1)c1ccc(OCCN(C)C)cc1)c1ccccc1` [Tamoxifen], in the assay on melanoma, the CR was 1%, the OR is given as 4.9% and the PR is 3.9%.

For `CCOP(=O)(OCC)C(C)NC(=O)N(CCCl)N=O` (stereo not shown) [Fotemustine], in the assay on melanoma, the OR was 15.2%, the Survival is 7.3 months and the TTP was 55 days.
